According to ChEMBL document CHEMBL2046410, “Computational design and discovery of "minimally structured" hERG blockers” (J Med Chem, 2012):

Target: Voltage-gated inwardly rectifying potassium channel KCNH2 (Homo sapiens, UniProt Q12809)
Assay: Inhibition of human ERG expressed in HEK cells by patch clamp assay
Format: cell-based, HEK293

Chain of Voltage-gated inwardly rectifying potassium channel KCNH2 (Q12809 whole entry): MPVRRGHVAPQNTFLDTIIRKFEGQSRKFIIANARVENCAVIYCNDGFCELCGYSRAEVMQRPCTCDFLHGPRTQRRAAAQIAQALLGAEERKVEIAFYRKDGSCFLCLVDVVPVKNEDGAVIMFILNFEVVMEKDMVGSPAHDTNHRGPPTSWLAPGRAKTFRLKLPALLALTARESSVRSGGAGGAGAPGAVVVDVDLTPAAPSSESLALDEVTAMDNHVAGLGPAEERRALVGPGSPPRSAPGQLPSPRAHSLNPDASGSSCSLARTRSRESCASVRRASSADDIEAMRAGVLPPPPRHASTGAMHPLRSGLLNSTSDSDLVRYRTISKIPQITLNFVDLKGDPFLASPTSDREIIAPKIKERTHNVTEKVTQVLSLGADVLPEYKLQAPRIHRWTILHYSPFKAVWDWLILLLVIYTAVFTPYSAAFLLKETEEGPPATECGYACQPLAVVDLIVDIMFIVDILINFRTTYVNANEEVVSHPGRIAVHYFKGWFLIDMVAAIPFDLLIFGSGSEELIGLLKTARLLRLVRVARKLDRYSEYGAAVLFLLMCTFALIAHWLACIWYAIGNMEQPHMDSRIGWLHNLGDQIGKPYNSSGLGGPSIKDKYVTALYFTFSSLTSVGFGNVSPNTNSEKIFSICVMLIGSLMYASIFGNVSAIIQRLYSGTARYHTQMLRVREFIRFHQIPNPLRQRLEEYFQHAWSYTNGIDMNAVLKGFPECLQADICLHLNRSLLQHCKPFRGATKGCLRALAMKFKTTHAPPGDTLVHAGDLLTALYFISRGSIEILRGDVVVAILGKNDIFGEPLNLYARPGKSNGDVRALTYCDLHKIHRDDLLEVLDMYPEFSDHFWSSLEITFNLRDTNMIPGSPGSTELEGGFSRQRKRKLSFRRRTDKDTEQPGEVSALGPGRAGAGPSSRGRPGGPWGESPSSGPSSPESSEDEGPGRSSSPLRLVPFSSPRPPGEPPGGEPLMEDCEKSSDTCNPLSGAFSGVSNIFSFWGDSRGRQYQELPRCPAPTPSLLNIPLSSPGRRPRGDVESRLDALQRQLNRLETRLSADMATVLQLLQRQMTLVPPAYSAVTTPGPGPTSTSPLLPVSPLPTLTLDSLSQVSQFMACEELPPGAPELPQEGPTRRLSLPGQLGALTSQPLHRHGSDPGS

SMILES	IC50 (read-out: IC50) [µM]	IC50 (read-out: pIC50 (converted)) [µM]
c1ccc(CCNCCC(c2ccccc2)c2ccccc2)cc1	2.79	3.16
c1ccc(CCCNCCC(c2ccccc2)c2ccccc2)cc1	0.017	–
c1ccc(CCCNCCN(c2ccccc2)c2ccccc2)cc1	0.58	–
Fc1ccc(N(CCNCCCc2ccccc2)c2ccc(F)cc2)cc1	0.0024	–
O=C(Cc1ccccc1)NCCN(c1ccccc1)c1ccccc1	7.86	–
O=C(CCc1ccccc1)NCCN(c1ccc(F)cc1)c1ccc(F)cc1	0.192	–
